Ki and Ratio Ki data for five compounds are collected here from ChEMBL document CHEMBL1153296, “Design and synthesis of novel tri-aryl CB2 selective cannabinoid ligands” (Bioorg Med Chem Lett, 2009).

Test [1] has as its target Cannabinoid receptor 1 (Homo sapiens, UniProt P21554). Kind of test: Binding affinity to human CB1 receptor transfected in HEK293 cells. Type of test: cell-based.
The species named for test [2] is Homo sapiens. The test is described as follows: Selectivity ratio of Ki for human CB1 receptor to Ki for human CB2 receptor.
The target in test [3] is Cannabinoid receptor 2 (Homo sapiens, UniProt P34972). Kind of test: Binding affinity to human CB2 receptor transfected in HEK293 cells. Format: cell-based.
Chain of Cannabinoid receptor 2 (P34972 whole entry): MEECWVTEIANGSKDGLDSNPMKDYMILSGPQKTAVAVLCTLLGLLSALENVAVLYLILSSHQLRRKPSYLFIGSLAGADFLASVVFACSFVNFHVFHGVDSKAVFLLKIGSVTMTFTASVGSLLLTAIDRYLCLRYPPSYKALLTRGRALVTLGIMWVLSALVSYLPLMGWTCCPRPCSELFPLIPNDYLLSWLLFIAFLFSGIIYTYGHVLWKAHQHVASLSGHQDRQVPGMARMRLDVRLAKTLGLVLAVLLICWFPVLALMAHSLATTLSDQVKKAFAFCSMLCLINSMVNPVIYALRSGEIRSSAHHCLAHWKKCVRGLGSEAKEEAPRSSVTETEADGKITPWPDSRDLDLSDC

Chain of Cannabinoid receptor 1 (P21554 whole entry): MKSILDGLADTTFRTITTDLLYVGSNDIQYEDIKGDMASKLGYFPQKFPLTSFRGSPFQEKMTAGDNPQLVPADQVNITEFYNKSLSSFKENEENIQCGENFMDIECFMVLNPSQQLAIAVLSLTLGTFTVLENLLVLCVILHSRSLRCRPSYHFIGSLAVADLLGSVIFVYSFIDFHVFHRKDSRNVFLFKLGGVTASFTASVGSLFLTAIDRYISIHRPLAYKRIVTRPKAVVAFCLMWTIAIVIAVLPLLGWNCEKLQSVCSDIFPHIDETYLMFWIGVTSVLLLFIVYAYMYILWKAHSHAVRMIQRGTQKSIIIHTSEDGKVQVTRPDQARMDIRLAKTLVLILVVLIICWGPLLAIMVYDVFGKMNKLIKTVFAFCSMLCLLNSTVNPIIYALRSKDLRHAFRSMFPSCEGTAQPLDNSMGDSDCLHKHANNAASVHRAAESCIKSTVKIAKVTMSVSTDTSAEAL

For `COc1cc(C(=O)c2ccccc2)cc(O)c1-c1cc(Cl)cc(Cl)c1`, the Ki in test [1] was over 1000 nM. Further, the Ratio Ki in test [2] was found to be 210.
Consider `CC1=CC[C@@H]2[C@@H](C1)c1c(O)cc(C(C)(C)c3ccccc3)cc1OC2(C)C`, for which, in test [2], the Ratio Ki is 13.5.
On the same count and under the same terms, as for `O=C(c1ccccc1)c1cc(O)c(-c2cc(Cl)cc(Cl)c2)c(O)c1`, the figure is 9.2.
With `CC(C)(c1ccccc1)c1cc(O)c(-c2cc(Cl)cc(Cl)c2)c(O)c1`, the Ki in test [1] came out at 93.7 nM; in test [3], 1.07 nM. The Ratio Ki in test [2] amounted to 87.5.
Turning to `COc1cc(C(O)c2ccccc2)cc(OC)c1-c1cc(Cl)cc(Cl)c1` (centres undefined), the inhibitory constant (Ki) in test [1] is over 1000 nM. Further, in test [2], the Ratio Ki stood at 602.
